Assays:
NMDA receptor (NMDAR) [1] = test system: T1, NMDA receptor (NMDAR); assay: whole-cell patch clamp of NMDA-evoked currents, concentration-response at -70 mV; also NMDAR EPSCs; format: cell-based, Rattus norvegicus
T1 construct: gene Grin1; native receptor in dissociated cultures of rat hippocampal neurons

NMDA receptor (NMDAR) [2] = test system: T1, NMDA receptor (NMDAR); assay: whole-cell patch clamp of NMDA-evoked currents, concentration-response at -70 mV; format: cell-based, Rattus norvegicus

SMILES | IC50 (NMDA receptor (NMDAR) [1]) | IC50 (NMDA receptor (NMDAR) [2])
C#CCCCNC1(c2ccccc2Cl)CCCCC1=O (racemic) [compound 1, A-NK] | 1.8 µM | –
NC1(c2ccccc2Cl)CCCCC1=O (racemic) [norketamine] | 2 µM | –
CNC1(c2ccccc2Cl)CCCCC1=O (racemic) [ketamine] | – | 0.4 µM

Source: PMC5159840, “A Clickable Analogue of Ketamine Retains NMDA Receptor Activity, Psychoactivity, and Accumulates in Neurons” (Scientific Reports, 2016)
